Tests used:
Format in all cases: in vivo
[1] = tested on: barnyard grass (Echinochloa crus-galli); experiment: Pre-emergence application, herbicidal effect on barnyard grass (Table 1); design: key: 0: not damaged; 5: completely killed; details: 20 days after application, score 0-5
Method in brief: (§1)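 Soil treatment after sowing, pre-emergence; wettable powder formulations diluted with water. Greenhouse, 20 d. Score 0 = no damage, 5 = complete kill.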

[2] = tested on: large crabgrass (Digitaria sanguinalis); experiment: Pre-emergence application, herbicidal effect on large crabgrass (Table 1); design: key: 0: not damaged; 5: completely killed; details: 20 days after application, score 0-5
Method in brief: as §1

radish = experiment: Pre-emergence application, herbicidal effect on radish (Table 1); design: key: 0: not damaged; 5: completely killed; details: 20 days after application, score 0-5
Method in brief: as §1

[3] = tested on: redroot pigweed (Amaranthus retroflexus); experiment: Pre-emergence application, herbicidal effect on redroot pigweed (Table 1); design: key: 0: not damaged; 5: completely killed; details: 20 days after application, score 0-5
Method in brief: as §1

[4] = tested on: common purslane (Portulaca oleracea); experiment: Pre-emergence application, herbicidal effect on common purslane (Table 1); design: key: 0: not damaged; 5: completely killed; details: 20 days after application, score 0-5
Method in brief: as §1

[5] = tested on: common lambsquarter (Chenopodium album); experiment: Pre-emergence application, herbicidal effect on common lambsquarter (Table 1); design: key: 0: not damaged; 5: completely killed; details: 20 days after application, score 0-5
Method in brief: as §1

rice = experiment: Water application, phytotoxicity on rice (Table 2); design: key: 0: no effect; 1: very slightly affected; 2: slightly affected; 3: moderately affected; 4: considerably affected; 5: completely killed; details: 25 days, score 0-5
Method in brief: (§2)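 Paddy-soil pots flooded to paddy conditions; rice transplanted at 3-leaf stage, barnyard grass sown, broad-leaved weeds germinating spontaneously. Test compounds applied as wettable powder to soil under flooded water. Herbicidal effect and rice phytotoxicity scored 0–5 at 25 days after application.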

[6] = tested on: barnyard grass (Echinochloa crus-galli); experiment: Water application, herbicidal effect on barnyard grass (Table 2); design: key: 0: not damaged; 5: completely killed; details: 25 days, score 0-5
Method in brief: as §2

[7] = tested on: broad-leaved weeds, e.g., monochoria, false pimpernel and toothcup; experiment: Water application, herbicidal effect on broad-leaved weeds (Table 2); design: key: 0: not damaged; 5: completely killed; details: 25 days, score 0-5
Method in brief: as §2

[8] = tested on: broad-leaved weeds, e.g., monochoria, false pimpernel and toothcup; experiment: as above; design: key: 0: no effect; 1: very slightly affected; 2: slightly affected; 3: moderately affected; 4: considerably affected; 5: completely killed; details: 10 g/a, 25 days, score 0-5
Excerpt: Wagner pots of 14 cm. in diameter, which had been packed with 1.5 kg. of paddy field soil, were brought into the state of paddy fields. To the pots were transplanted rice seedlings at the 3-leave stage. Further, seeds of barnyard grass (Echinochloa crus-galli) were sowed in the pots and required amounts of test compounds were applied to the soil under water lodged condition. 25 days after application, the degrees of herbicidal activity and phytotoxity were investigated on above-mentioned plants which had been transplanted and sowed, and on broad-leaved weeds, e.g., monochoria (Monochoria viaginalis Presl.), false pimpernel (Linderna pyxidaria) and toothcup (Rotala indica Koehue), which had been spontaneously germinated. The test compounds were used in the form of wettable powder. The herbicidal effects and the phytotoxity were evaluated as follows by the numerals ranging from 0 to 5.

nematode = experiment: Effect on nematode (Table 7); design: tested at 500 ppm; details: 500 p.p.m., 24 hours
Experimental: 0.5 ml. of a nematode-containing aqueous solution separated from food according to Baermann's method was placed in a test tube with ground stopper containing 0.5 ml. of an aqueous dilute solution of each emulsifiable concentrates of the present compounds. The concentration of the active ingredient in the mixture was adjusted to 500 p.p.m. After 24 hours, the death and alive were observed microscopically to calculate the mortality.

Row | SMILES | Herbicidal effect, barnyard grass ([1]; 10 g./a.) | Herbicidal effect, barnyard grass ([1]; 20 g./a.) | Herbicidal effect, barnyard grass ([1]; 40 g./a.) | Herbicidal effect, large crabgrass ([2]; 10 g./a.) | Herbicidal effect, large crabgrass ([2]; 20 g./a.) | Herbicidal effect, large crabgrass ([2]; 40 g./a.) | Herbicidal effect, radish (radish; 10 g./a.) | Herbicidal effect, radish (radish; 20 g./a.) | Herbicidal effect, radish (radish; 40 g./a.) | Herbicidal effect, redroot pigweed ([3]; 10 g./a.) | Herbicidal effect, redroot pigweed ([3]; 20 g./a.) | Herbicidal effect, redroot pigweed ([3]; 40 g./a.) | Herbicidal effect, common purslane ([4]; 10 g./a.) | Herbicidal effect, common purslane ([4]; 20 g./a.) | Herbicidal effect, common purslane ([4]; 40 g./a.) | Herbicidal effect, common lambsquarter ([5]; 10 g./a.) | Herbicidal effect, common lambsquarter ([5]; 20 g./a.) | Herbicidal effect, common lambsquarter ([5]; 40 g./a.) | Phytotoxicity on rice (rice; 10 g/a) | Phytotoxicity on rice (rice; 20 g/a) | also measured
1 | CCCCCCCCSP(=O)(OCC)SCC(=O)N1CCCCC1C (stereo not shown) [Compound 8] | 4 | 4 | 5 | 4 | 4 | 5 | 0 | 0 | 0 | 3 | 4 | 4 | 4 | 4 | 4 | 3 | 4 | 4 | 0 | 0 | Phytotoxicity on rice (rice; 40 g/a): 0; Herbicidal effects, barnyard grass ([6]; 10 g/a): 5; Herbicidal effects, barnyard grass ([6]; 20 g/a): 5; Herbicidal effects, barnyard grass ([6]; 40 g/a): 5; Herbicidal effects, broad-leaved weeds ([7]; 20 g/a): 5; Herbicidal effects, broad-leaved weeds ([7]; 40 g/a): 5; Herbicidal effects, broad-leaved weeds [8]: 4
2 | CCCCSP(=O)(OCCC)SCC(=O)N1CCCCC1C (stereo not shown) [Compound 17] | 4 | 4 | 5 | 4 | 5 | 5 | 0 | 0 | 0 | 3 | 4 | 4 | 3 | 4 | 4 | 4 | 4 | 5 | 0 | 0 | Phytotoxicity on rice (rice; 40 g/a): 0; Herbicidal effects, barnyard grass ([6]; 10 g/a): 5; Herbicidal effects, barnyard grass ([6]; 20 g/a): 5; Herbicidal effects, barnyard grass ([6]; 40 g/a): 5; Herbicidal effects, broad-leaved weeds ([7]; 20 g/a): 5; Herbicidal effects, broad-leaved weeds ([7]; 40 g/a): 5; Herbicidal effects, broad-leaved weeds [8]: 4
3 | CCCOP(=O)(SCCc1ccccc1)SCC(=O)N1CCCCC1CC (stereo not shown) [Compound 19] | 4 | 4 | 5 | 4 | 4 | 5 | 0 | 0 | 0 | 4 | 4 | 4 | 4 | 4 | 4 | 3 | 4 | 4 | 0 | 0 | Phytotoxicity on rice (rice; 40 g/a): 0; Herbicidal effects, barnyard grass ([6]; 10 g/a): 5; Herbicidal effects, barnyard grass ([6]; 20 g/a): 5; Herbicidal effects, barnyard grass ([6]; 40 g/a): 5; Herbicidal effects, broad-leaved weeds ([7]; 20 g/a): 5; Herbicidal effects, broad-leaved weeds ([7]; 40 g/a): 5; Herbicidal effects, broad-leaved weeds [8]: 4
4 | CCCOP(=O)(SCC(=O)N1CCCCC1C)SC(C)C (stereo not shown) [Compound 36] | 4 | 4 | 5 | 4 | 4 | 5 | 0 | 0 | 0 | 3 | 4 | 4 | 3 | 4 | 4 | 4 | 4 | 5 | 0 | 0 | Phytotoxicity on rice (rice; 40 g/a): 0; Herbicidal effects, barnyard grass ([6]; 10 g/a): 5; Herbicidal effects, barnyard grass ([6]; 20 g/a): 5; Herbicidal effects, barnyard grass ([6]; 40 g/a): 5; Herbicidal effects, broad-leaved weeds ([7]; 20 g/a): 5; Herbicidal effects, broad-leaved weeds ([7]; 40 g/a): 5; Herbicidal effects, broad-leaved weeds [8]: 4
5 | CCOP(=O)(SCC(=O)N1CCCCC1C)SCc1ccc(C)cc1 (stereo not shown) [Compound 52] | 5 | 5 | 5 | 5 | 5 | 5 | 0 | 0 | 0 | 4 | 4 | 5 | 3 | 4 | 5 | 3 | 4 | 5 | 0 | 0 | Phytotoxicity on rice (rice; 40 g/a): 0; Mortality (nematode): 85.7%; Herbicidal effects, barnyard grass ([6]; 10 g/a): 5; Herbicidal effects, barnyard grass ([6]; 20 g/a): 5; Herbicidal effects, barnyard grass ([6]; 40 g/a): 5; Herbicidal effects, broad-leaved weeds ([7]; 10 g/a): 5; Herbicidal effects, broad-leaved weeds ([7]; 20 g/a): 5; Herbicidal effects, broad-leaved weeds ([7]; 40 g/a): 5

From patent US4015974A, “Amido phosphorothiolates” (priority 1972, dated 1977)
